Source: patent US10894036B2, “Use of marizomib for the treatment of central nervous system (CNS) cancers” (Celgene International II Sàrl, priority 2016, dated 2021)
Values joined by “and” are separate entries in the source; they are usually repeats but may differ in a detail not shown here. Identical values can stand only once.

Columns and labels:
20S Proteasome = assay: 20S proteasome activity (% inhibition) in rodent brain; type: in vivo, mouse; design: 20S Proteasome Activity (% Inhibition), Blood, Trough / 20S Proteasome Activity (% Inhibition), Blood, Peak (2 hr) / 20S Proteasome Activity (% Inhibition), Tumor, Trough / 20S Proteasome Activity (% Inhibition), Tumor, Peak (2 hr): concentration or dose not given beside the values; settings: tumor-bearing mouse, IV; individual mice 1 and 2; listed as BTZ
[1] = tested on: malignant glioma stem-like cells; assay: HIF1-α and VEGF levels in malignant glioma stem-like cells; type: cell-based
[2] = Phase 1b MRZ + TMZ (+RT) in newly diagnosed G4 MG: adverse events, DLT; type: in vivo, human
Experimental: This is a Phase 1b, open-label, 3+3, dose-escalation followed by dose-expansion study in patients with newly diagnosed G4 MG who have not previously received any local or systemic therapy for their G4 MG. The study will examine the effect of the addition of MRZ to standard of care treatment utilizing two study arms: Concomitant Treatment in which MRZ will be combined with TMZ+RT and Adjuvant Treatment in which MRZ will be combined with TMZ. The study will be conducted in two Stages. In Stage 1 (Dose-Escalation): 3 to 6 evaluable patients per MRZ dose cohort will be enrolled in each study arm. […] A total of approximately 48 patients will be enrolled in Stages 1 and 2 combined. Patients may not be enrolled in more than 1 MRZ dose cohort per arm.
Concomitant Treatment consists of a 6 week (42 day) treatment period, followed by a 4 (−1) week break from treatments. All patients will receive intravenous (IV) MRZ infusion on Days 1, 8, 15, 29, and 36 as a 10 minute infusion. IV hydration will be given prior to the infusion. Focal RT will be administered once daily, 5 days/week, for 30 doses over 6 weeks to a total dose of 60 Gy, starting on Day 1. TMZ will be administered once daily, 7 days/week, for 6 weeks, starting on Day 1, at a dose of 75 mg/m^2. Patients who complete Concomitant Treatment may continue on to Adjuvant Treatment.
All patients will receive IV MRZ infusion on Days 1, 8, and 15 as a 10 minute infusion, in 28-day cycles. IV hydration will be given prior to the infusion. TMZ will be administered daily for 5 consecutive days, starting on Day 1 of Cycle 1 (C1D1), at a dose of 150 mg/m^2. If tolerated in Cycle 1, the TMZ dose will be increased on Day 1 of Cycle 2 (C2D1) to a dose of 200 mg/m^2.

[3] = patient 301-C202, action taken None

With `CC(C)C[C@H](NC(=O)[C@H](Cc1ccccc1)NC(=O)c1cnccn1)B(O)O` [bortezomib, reference compound] the “20S Proteasome Activity (% Inhibition), Blood, Peak (2 hr)” value (20S Proteasome) was 81% and 83%, the “20S Proteasome Activity (% Inhibition), Blood, Trough” value (20S Proteasome) was 18% and 13% and the “20S Proteasome Activity (% Inhibition), Tumor, Peak (2 hr)” value (20S Proteasome) was 83% and 93%. The “20S Proteasome Activity (% Inhibition), Tumor, Trough” value (20S Proteasome) was 64% and 41% and the “HIF1-α and VEGF levels” value [1] was “induces HIF1-α and VEGF levels”.

For `Cn1nnc2c(C(N)=O)ncn2c1=O` [temozolomide, reference compound], the “Abdominal pain, Grade ≥3 TEAE, drug related” value ([2]; human, in vivo) was 0 (0.0%), the “Confusional state, treatment-related TEAE, number of patients” value ([2]; human, in vivo) was 0 and the “Confusional state, treatment-related TEAE, percent of patients” value ([2]; human, in vivo) was “(0.0%)”. For the same molecule, the “Constipation, treatment-related TEAE, number of patients” value ([2]; human, in vivo) was 3, the “Constipation, treatment-related TEAE, percent of patients” value ([2]; human, in vivo) was “(15.0%)” and the “Decreased appetite, treatment-related TEAE, number of patients” value ([2]; human, in vivo) was 4. For the same molecule, the “Decreased appetite, treatment-related TEAE, percent of patients” value ([2]; human, in vivo) was “(20.0%)”, the “Dehydration, Grade ≥3 TEAE, drug related” value ([2]; human, in vivo) was 0 (0.0%) and the “Diarrhoea, treatment-related TEAE, number of patients” value ([2]; human, in vivo) was 2. For the same molecule, the “Diarrhoea, treatment-related TEAE, percent of patients” value ([2]; human, in vivo) was “(10.0%)”, the “Dizziness, treatment-related TEAE, number of patients” value ([2]; human, in vivo) was 2 and the “Dizziness, treatment-related TEAE, percent of patients” value ([2]; human, in vivo) was “(10.0%)”. For the same molecule, the “Dose reduction, reason Adverse Event” value ([2]; human, in vivo) was 1 (5.0%), the “Fatigue, Grade ≥3 TEAE, drug related” value ([2]; human, in vivo) was 1 (5.0%) and the “Fatigue, treatment-related TEAE, number of patients” value ([2]; human, in vivo) was 11. For the same molecule, the “Fatigue, treatment-related TEAE, percent of patients” value ([2]; human, in vivo) was “(55.0%)”, the “Hallucination, Grade ≥3 TEAE, drug related” value ([2]; human, in vivo) was 0 (0.0%) and the “Hallucination, treatment-related TEAE, number of patients” value ([2]; human, in vivo) was 0. For the same molecule, the “Hallucination, treatment-related TEAE, percent of patients” value ([2]; human, in vivo) was “(0.0%)”, the “Headache, Grade ≥3 TEAE, drug related” value ([2]; human, in vivo) was 0 (0.0%) and the “Headache, treatment-related TEAE, number of patients” value ([2]; human, in vivo) was 0. For the same molecule, the “Headache, treatment-related TEAE, percent of patients” value ([2]; human, in vivo) was “(0.0%)”, the “Insomnia, Grade ≥3 TEAE, drug related” value ([2]; human, in vivo) was 0 (0.0%) and the “Muscular weakness, treatment-related TEAE, number of patients” value ([2]; human, in vivo) was 0. For the same molecule, the “Muscular weakness, treatment-related TEAE, percent of patients” value ([2]; human, in vivo) was “(0.0%)”, the “Musculoskeletal pain, Grade ≥3 TEAE, drug related” value ([2]; human, in vivo) was 0 (0.0%) and the “Nausea, treatment-related TEAE, number of patients” value ([2]; human, in vivo) was 9. The “Nausea, treatment-related TEAE, percent of patients” value ([2]; human, in vivo) was “(45.0%)”, the “Number of Patients with drug Discontinued” value ([2]; human, in vivo) was 0 and the “Number of Patients with ≥1 Dose Reduction” value ([2]; human, in vivo) was 1 (5.0%). The “Ovarian cyst, Grade ≥3 TEAE, drug related” value ([2]; human, in vivo) was 0 (0.0%), the “Pelvic infection, Grade ≥3 TEAE, drug related” value ([2]; human, in vivo) was 0 (0.0%) and the “Platelet count decreased, Grade ≥3 TEAE, drug related” value ([2]; human, in vivo) was 1 (5.0%). For the same molecule, the “Platelet count decreased, treatment-related TEAE, number of patients” value ([2]; human, in vivo) was 3, the “Platelet count decreased, treatment-related TEAE, percent of patients” value ([2]; human, in vivo) was “(15.0%)” and the “Rash maculo-papular, treatment-related TEAE, number of patients” value ([2]; human, in vivo) was 3. For the same molecule, the “Rash maculo-papular, treatment-related TEAE, percent of patients” value ([2]; human, in vivo) was “(15.0%)”, the “Vomiting, Grade ≥3 TEAE, drug related” value ([2]; human, in vivo) was 0 (0.0%) and the “Vomiting, treatment-related TEAE, number of patients” value ([2]; human, in vivo) was 7. The “Vomiting, treatment-related TEAE, percent of patients” value ([2]; human, in vivo) was “(35.0%)”, the “SAE Dehydration, relationship to drug” value ([2]; in vivo) was “Not Suspected/” and the “SAE Fatigue, relationship to drug” value ([2]; in vivo) was “Not Suspected/”. The “SAE Hallucination, relationship to drug” value ([2]; in vivo) was “Not Suspected/”, the “SAE Nausea, relationship to drug” value ([2]; in vivo) was “Not Suspected/” and the “SAE Vomiting, relationship to drug” value ([2]; in vivo) was “Not Suspected/”. For the same molecule, the “SAE Nephrolithiasis, relationship to drug” value ([2]; patient 104-C302, action taken None) was “Not Suspected/”, the “SAE Confusional state, relationship to drug” value ([2]; patient 301-A202, action taken None) was “Not Suspected/” and the “SAE Ovarian cyst, relationship to drug” value ([2]; patient 301-C202, action taken Dose Delayed) was “Not Suspected/”. For the same molecule, the “SAE Convulsion, relationship to drug” value [2, 3] was “Not Suspected/” and the “SAE Pelvic infection, relationship to drug” value [2, 3] was “Not Suspected/”.
